Where “and” joins values, the source holds several entries; their conditions need not be identical. Equal entries are not always repeated. Structures can show the parent of a compound that is named as a salt. Calls of active or inactive are those of the source.

8 molecules from ChEMBL document CHEMBL1201862, “PubChem BioAssay data set” (2004) can be followed below.

In assay [1] the target is T1, Voltage-gated N-type calcium channel alpha-1B subunit/Amyloid beta A4 precursor protein-binding family A member 1 (Homo sapiens, UniProt Q00975+Q02410). It is filed as protein assay.
Assay [2] concerns the target T1, Voltage-gated N-type calcium channel alpha-1B subunit/Amyloid beta A4 precursor protein-binding family A member 1. It is filed as protein assay. The source holds these as a separate data set.
For assay [3], the target named is T2, Tyrosine-protein phosphatase non-receptor type 7 (Homo sapiens, UniProt P35236).
T2 sequence (P35236 whole entry): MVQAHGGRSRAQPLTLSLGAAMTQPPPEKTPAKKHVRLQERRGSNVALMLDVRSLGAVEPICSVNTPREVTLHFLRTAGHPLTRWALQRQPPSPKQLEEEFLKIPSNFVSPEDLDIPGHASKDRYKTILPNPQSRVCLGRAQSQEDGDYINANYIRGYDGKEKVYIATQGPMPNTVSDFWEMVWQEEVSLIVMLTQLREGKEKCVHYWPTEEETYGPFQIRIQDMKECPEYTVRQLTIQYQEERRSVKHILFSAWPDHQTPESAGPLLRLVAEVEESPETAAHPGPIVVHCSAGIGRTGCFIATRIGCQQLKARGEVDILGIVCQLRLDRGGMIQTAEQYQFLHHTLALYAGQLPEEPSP
Kind of assay: redox-active compounds inhibiting HePTP phosphatase – biochemical, fluorescence, mechanism study (AID 2068). It is filed as functional.

Assay [4] has as its target Eukaryotic translation initiation factor 4E (Mus musculus, UniProt P63073). Kind of assay: blockers of eIF4G binding by eIF4E – biochemical, TR-FRET, dose response (AID 855).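 Also: potency for disrupting eIF4E binding to eIF4GI seen as loss of FRET.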 It is filed as functional.
Assay [5] addresses Glutathione-S-transferase (Schistosoma japonicum, UniProt Q26513). Kind of assay: GST-antibody interaction or FRET quenching – biochemical, TR-FRET, artefact control for Vif-APOBEC3G degradation inhibitor project, dose response (AID 1117362). It is filed as functional.
The target of assay [6] is T3, Short transient receptor potential channel 4 (Mus musculus, UniProt Q9QUQ5).
T3 sequence (Q9QUQ5 whole entry): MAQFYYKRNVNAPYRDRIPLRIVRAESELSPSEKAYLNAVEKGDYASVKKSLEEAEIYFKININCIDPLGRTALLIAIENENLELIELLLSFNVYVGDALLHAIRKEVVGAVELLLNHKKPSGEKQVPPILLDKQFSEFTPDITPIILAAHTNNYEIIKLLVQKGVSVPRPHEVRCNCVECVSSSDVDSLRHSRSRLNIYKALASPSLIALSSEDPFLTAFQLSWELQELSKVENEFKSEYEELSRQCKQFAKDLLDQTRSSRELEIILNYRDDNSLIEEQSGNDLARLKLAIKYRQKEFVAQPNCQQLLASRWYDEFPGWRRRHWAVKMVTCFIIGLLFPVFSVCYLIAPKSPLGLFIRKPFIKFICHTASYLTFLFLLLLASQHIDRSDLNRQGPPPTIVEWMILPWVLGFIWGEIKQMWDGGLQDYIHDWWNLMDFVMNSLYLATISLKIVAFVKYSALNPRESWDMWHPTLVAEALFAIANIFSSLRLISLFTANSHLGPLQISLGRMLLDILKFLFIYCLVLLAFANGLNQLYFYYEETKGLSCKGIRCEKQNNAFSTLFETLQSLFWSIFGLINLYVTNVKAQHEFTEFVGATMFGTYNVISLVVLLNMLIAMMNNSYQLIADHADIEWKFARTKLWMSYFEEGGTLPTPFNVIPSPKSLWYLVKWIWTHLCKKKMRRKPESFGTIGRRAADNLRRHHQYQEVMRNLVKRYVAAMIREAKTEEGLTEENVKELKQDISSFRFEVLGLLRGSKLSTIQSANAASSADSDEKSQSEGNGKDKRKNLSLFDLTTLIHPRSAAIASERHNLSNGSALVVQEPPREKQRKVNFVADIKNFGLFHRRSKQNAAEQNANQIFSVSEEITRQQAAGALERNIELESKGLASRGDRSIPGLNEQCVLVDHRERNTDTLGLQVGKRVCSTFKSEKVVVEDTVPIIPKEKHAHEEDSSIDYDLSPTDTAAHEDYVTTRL
Kind of assay: potentiation of DAMGO-evoked TRPC4 calcium signal – cell-based, HEK293 TRPC4/mu-opioid, Fluo-4 calcium, EC20 DAMGO, dose response (AID 434941).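 Also: HEK293 cells coexpressing TRPC4 and mu opioid receptor stimulated by EC20 DAMGO.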 It is filed as functional.

A short description of assay [7]: Luminescence Cell-Based/Microorganism Confirmation at Dose of Inhibitors of Trypanosoma cruzi Infection. [Related pubchem assays: 1885, 1968 ]. It is filed as functional.
The nature of assay [8]: Luminescence Cell-Based Secondary HTS screen to identify cytotoxic compounds of NIH3T3 cells. [Related pubchem assays: 1885, 1968 ]. It is filed as functional.
Assay [9] is described as follows: NIH/3T3 cell viability loss – mouse embryonic fibroblasts, dry powder, set 2, cytotoxicity control, dose response (AID 493247). It is filed as functional, cell-based. To be noted: Fibroblast.
The next assay relates to Trypanosoma cruzi. Kind of assay: anti-trypanosomal activity in host cells – cell-based, plate reader, dry powder, set 3, dose response (AID 493197). It is filed as functional.
The target of assay [10] is C-C chemokine receptor type 6 (Homo sapiens, UniProt P51684). Kind of assay: antagonism of CCR6 beta-arrestin recruitment – cell-based, luminescent beta-arrestin readout, dose response (AID 504728). It is filed as functional.
The next assay addresses Beta-galactosidase (Escherichia coli, UniProt Q8VNN2). Kind of assay: detection-enzyme interference by beta-gal modulators – biochemical, E. coli enzyme, set 3, artefact control for CCR6 antagonist project, dose response (AID 504712). It is filed as functional.
Assay [11] addresses T4, Mannose-6-phosphate isomerase (Homo sapiens, UniProt P34949).
T4 sequence (P34949 whole entry): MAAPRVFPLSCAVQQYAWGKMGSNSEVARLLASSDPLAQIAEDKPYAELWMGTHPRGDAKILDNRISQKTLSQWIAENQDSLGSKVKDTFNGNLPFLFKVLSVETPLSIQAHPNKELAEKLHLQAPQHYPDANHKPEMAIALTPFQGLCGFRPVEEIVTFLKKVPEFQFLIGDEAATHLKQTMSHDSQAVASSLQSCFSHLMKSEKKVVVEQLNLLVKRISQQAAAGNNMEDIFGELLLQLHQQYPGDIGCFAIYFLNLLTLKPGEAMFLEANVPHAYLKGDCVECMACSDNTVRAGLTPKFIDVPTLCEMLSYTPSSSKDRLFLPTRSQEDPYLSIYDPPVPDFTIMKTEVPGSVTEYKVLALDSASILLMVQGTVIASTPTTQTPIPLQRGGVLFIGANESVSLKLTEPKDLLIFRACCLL
Kind of assay: phosphomannose isomerase inhibition – biochemical, fluorescence intensity, confirmation (AID 1535).

Another assay has as its target Hexokinase (Trypanosoma brucei, UniProt Q38C41). Kind of assay: Confirmation assay for inhibitors of Trypanosoma brucei hexokinase 1-Analogue-first series. [Related pubchem assays (depositor defined):AID1430, AID1632, AID2516, AID2560, AID2579, AID2600, AID449725, AID492951]. It is filed as functional.
Another assay has as its target T5, Phosphomannomutase 2 (Homo sapiens, UniProt O15305).
T5 sequence (O15305 whole entry): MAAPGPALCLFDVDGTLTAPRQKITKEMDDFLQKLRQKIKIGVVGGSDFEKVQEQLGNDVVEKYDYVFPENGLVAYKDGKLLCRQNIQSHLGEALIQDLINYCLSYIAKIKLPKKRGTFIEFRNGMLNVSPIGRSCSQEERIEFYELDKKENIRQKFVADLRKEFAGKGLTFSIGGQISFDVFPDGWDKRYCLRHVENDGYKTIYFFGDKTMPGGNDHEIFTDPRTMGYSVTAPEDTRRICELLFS
Kind of assay: Counter screen SAR assay for PMM2 inhibitors via a fluorescence intensity assay. [Related pubchem assays (depositor defined):AID1545, AID1574].

The target in the next assay is Mu-type opioid receptor (Homo sapiens, UniProt P35372). Kind of assay: SAR Analysis of Antagonists of the MOR Receptor using an Image-Based Assay - Set 3. [Related pubchem assays (depositor defined):AID1777, AID1785, AID1786, AID1966, AID2133, AID2136, AID2284, AID2285, AID2420]. It is filed as functional.
Assay [12] addresses Delta-type opioid receptor (Homo sapiens, UniProt P41143). Kind of assay: SAR Analysis of Antagonists of the DOR Receptor using an Image-Based Assay - Set 3. [Related pubchem assays (depositor defined):AID1777, AID1785]. It is filed as functional.
Assay [13] deals with T6, Kappa-type opioid receptor (Homo sapiens, UniProt P41145). Kind of assay: SAR analysis of small molecule antagonists of the kappa opioid receptor via a luminescent beta-arrestin assay - Set 3. [Related pubchem assays (depositor defined):AID1777, AID1778, AID1785, AID1786, AID1966, AID2133, AID2136, AID2285, AID2495]. It is filed as functional.
Assay [14] concerns the target T6, Kappa-type opioid receptor. Kind of assay: SAR analysis of Antagonists of the Kappa Opioid Receptor (KOR) using an Image-Based Assay - Set 3. [Related pubchem assays (depositor defined):AID1777, AID1785]. It is filed as functional.
The nature of assay [15]: NIH-3T3 fibroblast cytotoxicity, dose response, cytotoxicity control, cell-based, fluorescence, Alamar Blue, secondary assay (AID 2327).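 Also: NIH-3T3 mouse fibroblasts cultured with fluconazole at 8 µg/mL.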 It is filed as functional.
The target in assay [16] is T7, SUMO-activating enzyme (Homo sapiens, UniProt Q9UBT2). Kind of assay: blockers of UBC9-mediated SUMO conjugation – biochemical, AlphaScreen, SUMOylation inhibitor project, confirmation (AID 2018). It is filed as functional.
A short description of assay [17]: fluconazole-exposed Candida albicans growth modulators – fluorescence, retest, confirmation (AID 2467). It is filed as functional, cell-based.
For assay [18], the target named is T7, SUMO-activating enzyme. Kind of assay: blockers of SAE1/SAE2–UBC9 SUMO transfer – biochemical, HTRF, uHTS, primary screen (AID 2006). It is filed as protein-complex assay.
The target in assay [19] is Intestinal-type alkaline phosphatase (Mus musculus, UniProt P24822). Kind of assay: PubChem AID 488875. It is filed as functional.
Assay [20] deals with T8, Intestinal-type alkaline phosphatase (Homo sapiens, UniProt P09923). Kind of assay: human intestinal alkaline phosphatase activators, dose response, biochemical, luminescence, uHTS hits (AID 463120). It is filed as functional.
In assay [21] the target is T8, Intestinal-type alkaline phosphatase. Kind of assay: activation of human intestinal alkaline phosphatase – biochemical, luminescent, uHTS hits, set 2, dose response (AID 488817).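 Also: potency of activators that raise enzyme activity.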 It is filed as functional.
Assay [22] addresses T9, Alkaline phosphatase, tissue-nonspecific isozyme (Homo sapiens, UniProt P05186).
T9 sequence (P05186 whole entry): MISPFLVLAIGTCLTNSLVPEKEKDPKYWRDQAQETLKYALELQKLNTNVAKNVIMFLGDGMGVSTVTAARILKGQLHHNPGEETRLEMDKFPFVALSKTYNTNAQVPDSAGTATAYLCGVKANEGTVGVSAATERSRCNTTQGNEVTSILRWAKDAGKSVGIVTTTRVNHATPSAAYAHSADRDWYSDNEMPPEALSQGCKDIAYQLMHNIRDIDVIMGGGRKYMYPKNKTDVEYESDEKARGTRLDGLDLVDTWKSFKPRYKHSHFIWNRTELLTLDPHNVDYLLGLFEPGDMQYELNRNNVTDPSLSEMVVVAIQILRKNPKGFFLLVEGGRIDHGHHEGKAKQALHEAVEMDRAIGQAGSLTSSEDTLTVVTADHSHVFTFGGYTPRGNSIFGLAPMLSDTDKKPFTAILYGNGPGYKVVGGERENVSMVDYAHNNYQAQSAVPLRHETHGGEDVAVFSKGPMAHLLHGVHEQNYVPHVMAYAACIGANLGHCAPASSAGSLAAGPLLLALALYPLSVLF
Kind of assay: activation of tissue-nonspecific alkaline phosphatase – biochemical, TNAP isozyme, human IAP uHTS hits, selectivity assay for human IAP activator project, dose response (AID 488886).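 Also: potency of compounds raising TNAP activity as a selectivity check on IAP activators.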 It is filed as functional.

Assay [23] addresses G-protein coupled receptor 55 (Homo sapiens, UniProt Q9Y2T6). Kind of assay: inhibition of LPI-stimulated GPR55 beta-arrestin translocation – imaging, U2OS, beta-arrestin-GFP, LPI agonist, primary screen (AID 2013).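 Also: antagonist potency measured as reduced agonist-driven arrestin aggregation.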 It is filed as functional.

T7 sequence (Q9UBE0 whole entry): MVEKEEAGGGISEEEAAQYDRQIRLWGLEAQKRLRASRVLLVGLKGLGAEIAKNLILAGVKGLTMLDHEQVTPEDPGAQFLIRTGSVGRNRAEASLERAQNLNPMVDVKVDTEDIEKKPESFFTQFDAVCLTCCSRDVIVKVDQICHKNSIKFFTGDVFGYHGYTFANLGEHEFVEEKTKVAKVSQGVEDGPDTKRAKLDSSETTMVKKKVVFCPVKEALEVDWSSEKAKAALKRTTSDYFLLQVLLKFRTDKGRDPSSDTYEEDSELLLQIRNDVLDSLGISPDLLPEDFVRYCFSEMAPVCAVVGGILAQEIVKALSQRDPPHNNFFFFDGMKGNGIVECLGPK
T7 sequence (Q9UBT2 whole entry): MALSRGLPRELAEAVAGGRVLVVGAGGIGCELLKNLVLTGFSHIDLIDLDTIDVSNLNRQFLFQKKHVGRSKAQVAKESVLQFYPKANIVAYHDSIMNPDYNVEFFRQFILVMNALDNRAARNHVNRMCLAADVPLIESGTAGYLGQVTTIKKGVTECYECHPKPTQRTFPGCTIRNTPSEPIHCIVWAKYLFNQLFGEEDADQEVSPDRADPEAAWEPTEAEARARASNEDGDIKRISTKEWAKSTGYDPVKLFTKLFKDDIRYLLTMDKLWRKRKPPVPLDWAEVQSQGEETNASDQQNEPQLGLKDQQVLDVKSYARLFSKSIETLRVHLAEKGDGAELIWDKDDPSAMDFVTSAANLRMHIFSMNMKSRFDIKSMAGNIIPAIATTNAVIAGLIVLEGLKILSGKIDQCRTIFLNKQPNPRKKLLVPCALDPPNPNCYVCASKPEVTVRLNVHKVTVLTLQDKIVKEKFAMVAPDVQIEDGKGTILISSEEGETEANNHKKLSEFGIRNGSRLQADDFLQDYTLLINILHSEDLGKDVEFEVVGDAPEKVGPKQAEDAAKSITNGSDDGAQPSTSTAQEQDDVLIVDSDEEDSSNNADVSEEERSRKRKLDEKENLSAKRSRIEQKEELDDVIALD
T8 sequence (P09923 whole entry): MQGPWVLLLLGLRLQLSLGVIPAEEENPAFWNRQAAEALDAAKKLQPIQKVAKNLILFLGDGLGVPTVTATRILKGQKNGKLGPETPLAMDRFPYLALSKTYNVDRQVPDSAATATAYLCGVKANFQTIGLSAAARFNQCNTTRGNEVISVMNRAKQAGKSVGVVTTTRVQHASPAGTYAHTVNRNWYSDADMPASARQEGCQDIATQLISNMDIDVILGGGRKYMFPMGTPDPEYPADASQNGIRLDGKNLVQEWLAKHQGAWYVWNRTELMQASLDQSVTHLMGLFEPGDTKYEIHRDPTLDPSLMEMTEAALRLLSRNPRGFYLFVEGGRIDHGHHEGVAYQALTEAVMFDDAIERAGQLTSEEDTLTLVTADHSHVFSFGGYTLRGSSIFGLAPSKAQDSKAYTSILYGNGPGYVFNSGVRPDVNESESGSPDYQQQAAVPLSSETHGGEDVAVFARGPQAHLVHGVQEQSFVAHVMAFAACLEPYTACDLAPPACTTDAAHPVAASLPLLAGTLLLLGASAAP
T1 sequence (Q00975 whole entry): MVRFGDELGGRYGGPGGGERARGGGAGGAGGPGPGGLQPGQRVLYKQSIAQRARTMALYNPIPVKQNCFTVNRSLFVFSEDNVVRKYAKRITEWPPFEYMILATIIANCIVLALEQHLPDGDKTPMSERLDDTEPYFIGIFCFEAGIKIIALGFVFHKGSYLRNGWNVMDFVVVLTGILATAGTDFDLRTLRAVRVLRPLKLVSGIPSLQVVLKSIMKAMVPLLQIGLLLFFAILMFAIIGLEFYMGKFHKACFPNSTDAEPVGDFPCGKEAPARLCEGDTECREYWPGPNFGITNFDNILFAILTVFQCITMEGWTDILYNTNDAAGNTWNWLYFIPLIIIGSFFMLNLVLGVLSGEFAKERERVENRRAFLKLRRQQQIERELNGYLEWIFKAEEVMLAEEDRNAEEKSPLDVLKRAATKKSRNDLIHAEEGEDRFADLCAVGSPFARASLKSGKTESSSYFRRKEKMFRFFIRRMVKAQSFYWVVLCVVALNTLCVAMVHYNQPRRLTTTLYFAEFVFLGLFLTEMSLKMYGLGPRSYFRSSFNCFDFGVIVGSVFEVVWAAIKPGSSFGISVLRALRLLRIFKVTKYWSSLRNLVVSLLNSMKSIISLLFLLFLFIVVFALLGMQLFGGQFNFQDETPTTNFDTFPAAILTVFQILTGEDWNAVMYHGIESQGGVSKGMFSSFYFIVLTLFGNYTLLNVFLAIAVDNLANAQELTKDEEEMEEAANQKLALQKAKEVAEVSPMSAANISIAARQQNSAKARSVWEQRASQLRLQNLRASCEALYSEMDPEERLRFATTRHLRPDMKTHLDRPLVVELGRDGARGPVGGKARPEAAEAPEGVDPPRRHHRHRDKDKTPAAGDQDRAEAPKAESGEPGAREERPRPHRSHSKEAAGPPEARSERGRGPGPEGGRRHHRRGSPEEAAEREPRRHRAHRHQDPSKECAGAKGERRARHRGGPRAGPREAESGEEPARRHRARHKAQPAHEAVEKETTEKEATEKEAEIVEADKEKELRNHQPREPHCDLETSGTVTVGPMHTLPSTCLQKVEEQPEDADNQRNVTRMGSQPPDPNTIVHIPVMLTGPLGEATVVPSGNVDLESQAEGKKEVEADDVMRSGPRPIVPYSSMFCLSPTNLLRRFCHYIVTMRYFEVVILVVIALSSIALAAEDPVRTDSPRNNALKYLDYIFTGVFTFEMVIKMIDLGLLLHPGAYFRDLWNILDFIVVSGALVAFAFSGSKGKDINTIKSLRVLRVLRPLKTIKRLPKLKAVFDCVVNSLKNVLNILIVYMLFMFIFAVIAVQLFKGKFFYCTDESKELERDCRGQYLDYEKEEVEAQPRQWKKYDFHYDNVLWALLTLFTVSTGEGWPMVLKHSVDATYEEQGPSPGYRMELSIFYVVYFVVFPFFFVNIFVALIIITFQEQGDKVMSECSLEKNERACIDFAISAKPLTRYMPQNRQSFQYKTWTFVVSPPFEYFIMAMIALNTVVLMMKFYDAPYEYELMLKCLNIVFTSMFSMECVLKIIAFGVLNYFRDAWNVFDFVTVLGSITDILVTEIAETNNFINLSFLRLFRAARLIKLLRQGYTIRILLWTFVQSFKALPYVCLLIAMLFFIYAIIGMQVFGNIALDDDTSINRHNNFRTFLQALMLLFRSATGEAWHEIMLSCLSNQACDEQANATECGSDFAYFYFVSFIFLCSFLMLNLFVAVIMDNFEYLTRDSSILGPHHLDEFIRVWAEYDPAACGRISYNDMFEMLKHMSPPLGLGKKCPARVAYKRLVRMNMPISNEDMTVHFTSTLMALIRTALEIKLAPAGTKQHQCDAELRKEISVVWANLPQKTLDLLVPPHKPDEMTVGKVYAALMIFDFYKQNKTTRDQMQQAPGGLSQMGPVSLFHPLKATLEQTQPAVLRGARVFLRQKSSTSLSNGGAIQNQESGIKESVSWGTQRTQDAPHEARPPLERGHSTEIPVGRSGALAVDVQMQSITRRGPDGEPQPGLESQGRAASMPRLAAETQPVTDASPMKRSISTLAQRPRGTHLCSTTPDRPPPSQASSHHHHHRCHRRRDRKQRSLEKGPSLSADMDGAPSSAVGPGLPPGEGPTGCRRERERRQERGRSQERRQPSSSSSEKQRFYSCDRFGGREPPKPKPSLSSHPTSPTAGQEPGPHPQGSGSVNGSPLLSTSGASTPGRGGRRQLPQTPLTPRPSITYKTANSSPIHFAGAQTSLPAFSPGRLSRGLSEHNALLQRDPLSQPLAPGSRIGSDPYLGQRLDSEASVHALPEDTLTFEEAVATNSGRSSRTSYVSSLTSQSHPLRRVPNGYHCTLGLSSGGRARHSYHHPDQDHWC
T1 sequence (Q02410 whole entry): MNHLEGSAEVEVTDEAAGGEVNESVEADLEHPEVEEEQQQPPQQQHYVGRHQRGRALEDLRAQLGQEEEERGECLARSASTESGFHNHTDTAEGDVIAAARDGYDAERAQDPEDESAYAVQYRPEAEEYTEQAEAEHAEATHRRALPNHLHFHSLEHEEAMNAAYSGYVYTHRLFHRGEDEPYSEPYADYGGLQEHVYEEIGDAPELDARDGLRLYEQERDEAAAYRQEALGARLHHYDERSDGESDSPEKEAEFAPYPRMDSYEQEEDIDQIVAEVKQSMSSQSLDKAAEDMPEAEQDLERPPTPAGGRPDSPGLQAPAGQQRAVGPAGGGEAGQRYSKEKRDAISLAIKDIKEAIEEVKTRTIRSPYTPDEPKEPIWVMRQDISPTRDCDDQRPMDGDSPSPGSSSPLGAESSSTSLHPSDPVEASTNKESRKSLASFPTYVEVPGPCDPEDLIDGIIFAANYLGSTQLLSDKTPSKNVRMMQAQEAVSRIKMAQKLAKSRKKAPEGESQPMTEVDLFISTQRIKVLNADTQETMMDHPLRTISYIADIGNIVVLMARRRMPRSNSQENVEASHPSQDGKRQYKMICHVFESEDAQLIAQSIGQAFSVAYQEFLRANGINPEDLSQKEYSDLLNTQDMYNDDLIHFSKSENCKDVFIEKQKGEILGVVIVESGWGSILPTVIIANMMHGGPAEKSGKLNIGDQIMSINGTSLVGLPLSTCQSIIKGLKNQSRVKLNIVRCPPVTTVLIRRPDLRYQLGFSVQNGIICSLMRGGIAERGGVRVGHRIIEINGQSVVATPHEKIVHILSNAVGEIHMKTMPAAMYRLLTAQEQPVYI
T6 sequence (P41145 whole entry): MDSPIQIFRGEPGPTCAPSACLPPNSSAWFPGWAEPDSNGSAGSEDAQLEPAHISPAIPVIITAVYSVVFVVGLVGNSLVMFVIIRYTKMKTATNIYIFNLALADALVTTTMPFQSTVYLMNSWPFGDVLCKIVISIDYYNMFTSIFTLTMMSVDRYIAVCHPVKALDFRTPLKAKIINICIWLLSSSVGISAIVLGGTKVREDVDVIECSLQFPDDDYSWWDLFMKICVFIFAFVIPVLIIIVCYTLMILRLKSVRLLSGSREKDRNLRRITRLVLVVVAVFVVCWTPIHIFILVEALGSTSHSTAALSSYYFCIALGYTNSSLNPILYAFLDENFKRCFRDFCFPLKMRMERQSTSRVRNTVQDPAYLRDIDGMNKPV

On to `O=C(NCCCO)Nc1ccc2nc(-c3ccco3)c(-c3ccco3)nc2c1`, for which the IC50 in [1] was 20 µM (active); in assay [2], 0.507 µM (active); in [3] it was 841 nM (active) and 537 nM (active); in [4], 9.25 µM (active); in assay [5], > 100 µM (active).
`CCOc1ccc(-n2c(SCC(=O)O)nc3sc4c(c3c2=O)CCCC4)cc1`: the EC50 in [6] is 5.96 µM (active).
For `CN(Cc1ccccc1)C(=O)C1CCCN(Cc2cccc(Cl)c2)C1` (stereo not drawn), the EC50 in assay [7] is 0.231 µM (active); in assay [8], > 195 µM (not active). Also, the half-maximal activity concentration (AC50) was 70.3 µM (active) in assay [9] and 0.57 µM (active) in the assay on Trypanosoma cruzi.
For `O=C(Nc1nnc(C2CC2)s1)c1cc([N+](=O)[O-])ccc1N1CCCCC1`, the IC50 (in assay [10]; at Beta-galactosidase) was > 66.6 µM (inactive) each time.
Turning to `COc1cccc(-n2sc3ccccc3c2=O)c1`, the IC50 in assay [11] was 4.19 µM (active); on Hexokinase, 2.52 µM (active); at Phosphomannomutase 2 it was 14.3 µM (active).
Regarding `CCN(CCNC(=O)c1ccc(CNS(=O)(=O)c2ccc(C)cc2)cc1)Cc1ccccc1`, the IC50 is 10.3 µM (inactive) on Mu-type opioid receptor, > 32 µM (inactive) in assay [12], 5.57 µM (active) in [13] and 2.93 µM (active) in assay [14].
For the molecule `COc1cccc(/C=N\NC(=O)C2=NNC(=O)C2C)c1O` (stereo not drawn), the EC50 in assay [15] is > 160 µM (inconclusive); in [17] it was > 38 µM (not active); in assay [19], > 100 µM (inactive); in [20] it was 6.53 µM (active); in assay [21], 9.07 µM (active); in [22], 8.88 µM (active). Besides, the IC50 at SUMO-activating enzyme [16] is 5.18 µM (active); on SUMO-activating enzyme [18] it was 18.3 µM (active).
In the case of `CC(NCCC(c1ccccc1)c1ccccc1)c1ccccc1` (stereo not drawn) [FENDILINE HYDROCHLORIDE], the IC50 in [23] was 3.1 µM (active).
